Test results reported in patent US8377974B2 (Millennium Pharmaceuticals, Inc., priority 2004, dated 2013).

Molecular target: T1, human plasma protein factor Xa (Homo sapiens, UniProt P00742)
T1 construct: measure proteolytic activity of the enzyme (factor Xa); purchased Haematologic Technologies (Essex Junction, Vt.); host or cells: human plasma
Assay: Factor Xa IC50 determination: cleavage of paranitroanilide substrate S-2765 in 96-well plates
Type: biochemical
Conditions: fXa 1 nM, S-2765 100 μM, Tris buffered saline pH 7.4, room temperature
How it was run: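 Initial rates of S-2765 (100 μM final) cleavage, read at 405 nm for 2 min, fitted with a four-parameter equation to give IC50. Enzyme: 1 nM human plasma fXa, 5 min room-temperature preincubation with inhibitor (0.01 nM–10 μM) in 20 mM Tris, 150 mM NaCl, 5 mM CaCl2, 0.1% BSA, 5% DMSO, pH 7.4; duplicates.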

T1 sequence (P00742 235-488 limits assumed): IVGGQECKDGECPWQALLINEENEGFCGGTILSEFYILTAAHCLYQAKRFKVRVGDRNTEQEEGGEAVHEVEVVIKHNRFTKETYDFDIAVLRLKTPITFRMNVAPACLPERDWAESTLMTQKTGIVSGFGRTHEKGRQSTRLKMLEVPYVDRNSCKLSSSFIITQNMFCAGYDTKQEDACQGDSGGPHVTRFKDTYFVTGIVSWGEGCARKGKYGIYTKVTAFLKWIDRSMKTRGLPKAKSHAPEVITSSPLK
T1 sequence (P00742 41-179 partner limits assumed): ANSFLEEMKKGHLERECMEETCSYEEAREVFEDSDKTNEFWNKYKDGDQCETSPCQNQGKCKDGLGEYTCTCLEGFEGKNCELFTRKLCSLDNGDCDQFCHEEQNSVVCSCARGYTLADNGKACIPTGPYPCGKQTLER

Row | IC50 [nM] | Structure (SMILES)
1 | ≥ 500 | COC(=O)c1cccc(Nc2ccc(C3=NOC(CNC(=O)c4ccc(Cl)s4)C3)cc2)c1 (centres unmarked) [Example 261, 3-[4-(5-{[(5-Chloro-thiophene-2-carbonyl)-amino]-methyl}-4,5-dihydro-isoxazol-3-yl)-phenylamino]-benzoic acid methyl ester]
2 | ≤ 100 | CC1(CNC(=O)c2ccc(Cl)s2)CC(c2ccc(C(=N)N3CCCC3)cc2)=NO1 (centres unmarked) [Example 59, 5-Chloro-thiophene-2-carboxylic acid {3-[4-(imino-pyrrolidin-1-yl-methyl)-phenyl]-5-methyl-4,5-dihydro-isoxazol-5-ylmethyl}-amide]
3 | ≤ 100 | CN(C)C(=N)c1ccc(-n2cc(CNC(=O)c3ccc(Cl)s3)cn2)cc1 [Example 325, N-((1-(4-(N,N-Dimethylcarbamimidoyl)phenyl)-1H-pyrazol-4-yl)methyl)-5-chlorothiophene-2-carboxamide]
4 | ≤ 100 | CC(C)Oc1cc(C2=NCCN2C)ccc1C1=NOC(CNC(=O)c2ccc(Cl)s2)C1 (centres unmarked) [Example 110, 5-Chloro-thiophene-2-carboxylic acid {3-[2-isopropoxy-4-(1-methyl-4,5-dihydro-1H-imidazol-2-yl)-phenyl]-4,5-dihydro-isoxazol-5-ylmethyl}-amide]
5 | ≤ 100 | CCCN(C)C(=N)c1ccc(C2=NOC(CNC(=O)c3ccc(Cl)s3)C2)cc1 (centres unmarked) [Example 17, 5-Chloro-thiophene-2-carboxylic acid {3-[4-(N-methyl-N-propyl-carbamimidoyl)-phenyl]-4,5-dihydro-isoxazol-5-ylmethyl}-amide]
6 | ≥ 500 | Cc1cc(Nc2ccc(C3=NOC(CNC(=O)c4ccc(Cl)s4)C3)cc2)ccn1 (centres unmarked) [Example 228, 5-Chloro-thiophene-2-carboxylic acid {3-[4-(2-methyl-pyridin-4-ylamino)-phenyl]-4,5-dihydro-isoxazol-5-ylmethyl}-amide]
7 | ≤ 100 | COc1ccc(=O)n(-c2ccc(C3=NOC(CNC(=O)c4ccc(Cl)s4)C3)cc2)c1 (centres unmarked) [Example 286, 5-Chloro-N-((3-(4-(5-methoxy-2-oxopyridin-1(2H)-yl)phenyl)-4,5-dihydroisoxazol-5-yl)methyl)thiophene-2-carboxamide]
8 | 100 to 500 | COCCN(C)C(=N)c1ccc(C2=NOC(CNC(=O)c3ccc(Cl)s3)C2)cc1 (centres unmarked) [Example 14, 5-Chloro-thiophene-2-carboxylic acid (3-{4-[N-(2-methoxy-ethyl)-N-methyl-carbamimidoyl]-phenyl}-4,5-dihydro-isoxazol-5-ylmethyl)-amide]
9 | ≤ 100 | N=C(c1ccc(C2=NOC(CNC(=O)c3ccc(Cl)s3)C2)c(OC2CCCC2)c1)N1CCCC1 (centres unmarked) [Example 114, 5-Chloro-thiophene-2-carboxylic acid {3-[2-cyclopentyloxy-4-(imino-pyrrolidin-1-yl-methyl)-phenyl]-4,5-dihydro-isoxazol-5-ylmethyl}-amide]
10 | ≥ 500 | O=C(NCC1CC(c2ccccc2)=NO1)c1ccc(Cl)s1 (centres unmarked) [Example 144, 5-Chloro-thiophene-2-carboxylic acid (3-phenyl-4,5-dihydro-isoxazol-5-ylmethyl)-amide]
11 | ≤ 100 | CN1CCN=C1c1ccc(C2=NOC(C)(CNC(=O)c3ccc(Cl)s3)C2)cc1 (centres unmarked) [Example 58, 5-Chloro-thiophene-2-carboxylic acid {5-methyl-3-[4-(1-methyl-4,5-dihydro-1H-imidazol-2-yl)-phenyl]-4,5-dihydro-isoxazol-5-ylmethyl}-amide]
12 | ≤ 100 | CN1CCN=C1c1ccc(-c2ccc(F)c(CNC(=O)c3ccc(Cl)s3)c2)cc1 [Example 375, 5-Chloro-N-((5-(4-(1-methyl-4,5-dihydro-1H-imidazol-2-yl)phenyl)-2-fluorophenyl)methyl)thiophene-2-carboxamide]
13 | ≥ 500 | N=C(c1ccccc1)N1CCC(C2=NOC(CNC(=O)c3ccc(Cl)s3)C2)CC1 (centres unmarked) [Example 174, 5-Chloro-thiophene-2-carboxylic acid {3-[1-(imino-phenyl-methyl)-piperidin-4-yl]-4,5-dihydro-isoxazol-5-ylmethyl}-amide]
14 | ≤ 100 | O=C(NCC1CC(c2ccc(N3CCCC3=O)cc2)=NO1)c1ccc(Cl)s1 (centres unmarked) [Example 240, 5-Chloro-thiophene-2-carboxylic acid {3-[4-(2-oxo-pyrrolidin-1-yl)-phenyl]-4,5-dihydro-isoxazol-5-ylmethyl}-amide]
15 | ≤ 100 | CN(C)C(=N)c1ccc(-c2ccc(F)c(CNC(=O)c3ccc(Cl)s3)c2)cc1 [Example 374, N-((5-(4-(N,N-Dimethylcarbamimidoyl)phenyl)-2-fluorophenyl)methyl)-5-chlorothiophene-2-carboxamide]
16 | ≤ 100 | O=C(NCc1cn(-c2ccc(-n3cc(F)ccc3=O)cc2)nn1)c1ccc(Cl)s1 [Example 298, 5-Chloro-N-((1-(4-(5-fluoro-2-oxopyridin-1(2H)-yl)phenyl)-1H-1,2,3-triazol-4-yl)methyl)thiophene-2-carboxamide]

Row | IC50 [nM] | Structure (SMILES)
17 | ≤ 100 | N=C(c1ccc(-c2cc(CNC(=O)c3ccc(Cl)s3)on2)cc1)N1CCC1 [Example 26, 5-Chloro-thiophene-2-carboxylic acid {3-[4-(azetidin-1-yl-imino-methyl)-phenyl]-isoxazol-5-ylmethyl}-amide]
18 | ≤ 100 | Cc1ccn(-c2ccc(-n3cc(CNC(=O)c4ccc(Cl)s4)nn3)cc2)c(=O)c1 [Example 295, 5-Chloro-N-((1-(4-(4-methyl-2-oxopyridin-1(2H)-yl)phenyl)-1H-1,2,3-triazol-4-yl)methyl)thiophene-2-carboxamide]
19 | ≥ 500 | CNC(=N)c1ccc(-c2nc(CNC(=O)c3ccc(Cl)s3)co2)cc1 [Example 348, N-((2-(4-(N-Methylcarbamimidoyl)phenyl)oxazol-4-yl)methyl)-5-chlorothiophene-2-carboxamide]
20 | ≤ 100 | COc1cc(C(=N)N(C)C)ccc1-c1cc(CNC(=O)c2ccc(Cl)s2)on1 [Example 118, 5-Chloro-thiophene-2-carboxylic acid {3-[4-(N,N-dimethyl-carbamimidoyl)-2-methoxy-phenyl]-isoxazol-5-ylmethyl}-amide]
21 | ≤ 100 | CCN(C)C(=N)c1ccc(-c2cc(CNC(=O)c3ccc(Cl)s3)on2)cc1 [Example 28, 5-Chloro-thiophene-2-carboxylic acid {3-[4-(N-ethyl-N-methyl-carbamimidoyl)-phenyl]-isoxazol-5-ylmethyl}-amide]
22 | ≤ 100 | CN(C)c1cc(C(=N)N2CCCCC2)ccc1C1=NOC(CNC(=O)c2ccc(Cl)s2)C1 (centres unmarked) [Example 77, 5-Chloro-thiophene-2-carboxylic acid {3-[2-dimethylamino-4-(imino-piperidin-1-yl-methyl)-phenyl]-4,5-dihydro-isoxazol-5-ylmethyl}-amide]
23 | ≥ 500 | N=C(c1ccc(C2=NOC(CNC(=O)c3ccc(Cl)s3)C2)c(N2CCCC2)c1)N1CCCCC1 (centres unmarked) [Example 81, 5-Chloro-thiophene-2-carboxylic acid {3-[4-(imino-piperidin-1-yl-methyl)-2-pyrrolidin-1-yl-phenyl]-4,5-dihydro-isoxazol-5-ylmethyl}-amide]
24 | ≤ 100 | CN1CCN=C1c1ccc(-c2cncc(CNC(=O)c3ccc(Cl)s3)c2)cc1 [Example 370, 5-Chloro-N-((5-(4-(1-methyl-4,5-dihydro-1H-imidazol-2-yl)phenyl)pyridin-3-yl)methyl)thiophene-2-carboxamide]
25 | ≥ 500 | COC(=O)c1ccc(-c2cc(CNC(=O)c3ccc(Cl)s3)on2)cc1 [Example 157, 4-(5-{[(5-Chloro-thiophene-2-carbonyl)-amino]-methyl}-isoxazol-3-yl)-benzoic acid methyl ester]
26 | ≥ 500 | O=C(NCC1CC(c2ccc(N3CCOCCC3=O)cc2F)=NO1)c1ccc(Cl)s1 (centres unmarked) [Example 249, 5-Chloro-thiophene-2-carboxylic acid {3-[2-fluoro-4-(5-oxo-[1,4]oxazepan-4-yl)-phenyl]-4,5-dihydro-isoxazol-5-ylmethyl}-amide]
27 | ≤ 100 | CN1CCN=C1c1ccc(C2=NOC(CNC(=O)c3ccc(Cl)s3)C2)cc1 (centres unmarked) [Example 9, 5-Chloro-thiophene-2-carboxylic acid {3-[4-(1-methyl-4,5-dihydro-1H-imidazol-2-yl)-phenyl]-4,5-dihydro-isoxazol-5-ylmethyl}-amide]
28 | 100 to 500 | CC1(CNC(=O)c2ccc(Cl)s2)CC(c2ccc(C(=N)N3CCC(C(N)=O)CC3)cc2)=NO1 (centres unmarked) [Example 68, 1-{[4-(5-{[(5-Chloro-thiophene-2-carbonyl)-amino]-methyl}-5-methyl-4,5-dihydro-isoxazol-3-yl)-phenyl]-imino-methyl}-piperidine-4-carboxylic acid amide]
29 | ≤ 100 | O=C(NCc1cn(-c2ccc(N3CCOCC3=O)cc2F)nn1)c1ccc(Cl)s1 [Example 306, 5-Chloro-N-((1-(2-fluoro-4-(3-oxomorpholino)phenyl)-1H-1,2,3-triazol-4-yl)methyl)thiophene-2-carboxamide]
30 | 100 to 500 | N=C(c1ccc(C2=NOC(CNC(=O)c3ccc(Cl)s3)C2)c(N2CCOCC2)c1)N1CCCC1 (centres unmarked) [Example 84, 5-Chloro-thiophene-2-carboxylic acid {3-[4-(imino-pyrrolidin-1-yl-methyl)-2-morpholin-4-yl-phenyl]-4,5-dihydro-isoxazol-5-ylmethyl}-amide]
31 | ≤ 100 | CN(C)Cc1ccc(Cl)cc1-c1ccc(C2=NOC(CNC(=O)c3ccc(Cl)s3)C2)cc1 (centres unmarked) [Example 204, 5-Chloro-thiophene-2-carboxylic acid [3-(5′-chloro-2′-dimethylaminomethyl-biphenyl-4-yl)-4,5-dihydro-isoxazol-5-ylmethyl]-amide]
32 | ≤ 100 | CN(C)C(=N)c1ccc(-c2cc(CNC(=O)c3ccc(Cl)s3)on2)c(N(C)C)c1 [Example 94, 5-Chloro-thiophene-2-carboxylic acid {3-[2-dimethylamino-4-(N,N-dimethyl-carbamimidoyl)-phenyl]-isoxazol-5-ylmethyl}-amide]
